According to EPA's ToxValDB 9.5:

What was measured:
Oryctolagus sp. = details: reproduction developmental; duration: 13 days; oral; F; New Zealand
Rattus norvegicus = details: oral
[1] = developmental, duration: 5 days, oral, F, Developmental: Delay in vaginal opening at 5 mg/kg and mammary gland growth stimulation a 5 mg/kg and inhibition at 10 mg/kg
[2] = developmental, duration: 7 days, oral, F, Kunming, Developmental: Increased resorbed embryos at 10 mg/kg/day in GD 13 group
[3] = developmental, duration: 17 days, oral, F, C57BL/6, Developmental: Developmental delays in the mammary glands on PNDs 21 (38%) and 61 (25%)
[4] = developmental, duration: 17 days, oral, F, CD1, Developmental: Increased ambulatory activity and decreased methamphetamineinduced activity
[5] = developmental, duration: 17 days, oral, F, Developmental: Decrease in number of successful births
[6] = developmental, duration: 17 days, oral, F, Hepatic: Centrilobular hepatocyte hypertrophy and bile duct hyperplasia at 3 mg/kg/day
[7] = reproduction developmental, duration: 17 days, oral, F, CD1, Hepatic: Increase in severity of chronic inflammation at ?1 mg/kg/day / Ito cell hypertrophy and centrilobular hepatocellular hypertrophy …
[8] = short-term, duration: 4 days, dermal, F, BALB/c, Hepatic: 52% increase in absolute liver weight
[9] = short-term, duration: 4 days, dermal, F, BALB/c, Immunotoxicological: Increased serum IgE following ovalbumin challenge
[10] = short-term, duration: 5 days, oral, F, BALB/c, Body Weight: 13% decrease in body weight gain
[11] = short-term, duration: 5 days, oral, F, Body Weight: 10% decrease in body weight gain
[12] = short-term, duration: 10 days, oral, F, Immunotoxicological: Altered response to sRBC

O=C(O)C(F)(F)C(F)(F)C(F)(F)C(F)(F)C(F)(F)C(F)(F)C(F)(F)F [Perfluorooctanoic acid]
LOAEL (Mus musculus; developmental, duration: 5 days, oral, F, BALB/c, Developmental: Delay in vaginal opening at 1 mg/kg and mammary gland growth inhibition at 5 and 10 mg/kg): 1 mg/kg-day | LOAEL (Mus musculus; [1]): 5 mg/kg-day | NOAEL (Mus musculus; [1]): 1 mg/kg-day | LOAEL (Mus musculus; developmental, duration: 5 days, oral, F, Developmental: Mammary gland growth stimulation): 5 mg/kg-day | LOAEL (Mus musculus; [2]): 10 mg/kg-day | NOAEL (Mus musculus; [2]): 5 mg/kg-day | LOAEL (Mus musculus; developmental, duration: 15 days, oral, F, C57BL/6, Developmental: Increased horizontal and ambulatory locomotor activity and decreased resting time in males / decrease in novel object …): 0.1 mg/kg-day | LOAEL (Mus musculus; [3]): 0.3 mg/kg-day | NOAEL (Mus musculus; [3]): 0.1 mg/kg-day | LOAEL (Mus musculus; developmental, duration: 17 days, oral, F, CD1, Developmental: Developmental delays in mammary gland development): 0.01 mg/kg-day | LOAEL (Mus musculus; developmental, duration: 17 days, oral, F, CD1, Developmental: Developmental delays in the mammary glands on PNDs 35 (26%) and 56 (30%)): 0.01 mg/kg-day | LOAEL (Mus musculus; developmental, duration: 17 days, oral, F, CD1, Developmental: Impaired development of mammary glands in offspring): 0.3 mg/kg-day | LOAEL (Mus musculus; [4]): 1 mg/kg-day | NOAEL (Mus musculus; [4]): 0.3 mg/kg-day | LOAEL (Mus musculus; developmental, duration: 17 days, oral, F, Developmental: 31.5% reduced pups per litter on PND 20): 3 mg/kg-day | LOAEL (Mus musculus; [5]): 3 mg/kg-day | NOAEL (Mus musculus; [5]): 0.1 mg/kg-day | NOAEL (Mus musculus; developmental, duration: 17 days, oral, F, Hepatic: 28% increased liver weight, hepatocellular hypertrophy with increased peroxisomes): 3 mg/kg-day | LOAEL (Mus musculus; [6]): 3 mg/kg-day | NOAEL (Mus musculus; [6]): 1 mg/kg-day | LOAEL (Mus musculus; developmental, duration: 18 days, oral, F, ICR, Developmental: 14% increased neonatal mortality, 9.5% reduced fetal body weight): 5 mg/kg-day | NOAEL (Mus musculus; developmental, duration: 18 days, oral, F, ICR, Developmental: 14% increased neonatal mortality, 9.5% reduced fetal body weight + Hepatic: 35% increased maternal relative liver weight with…): 1 mg/kg-day | LOAEL (Mus musculus; developmental, duration: 20 days, oral, diet, M/F, C57BL/6, developmental): 8.29 mg/L | LOAEL (Mus musculus; developmental, duration: 21 days, oral, F, C57BL/6, Developmental: Altered femur and tibial bone morphology, decreased tibial mineral density): 0.3 mg/kg-day | LOAEL (Mus musculus; developmental, duration: 21 days, oral, M/F, Developmental: Altered exploratory behavior in adult offspring (increased in males and decreased in females) / increased global activity in…): 0.3 mg/kg-day | LOAEL (Mus musculus; reproduction developmental, duration: 7 days, oral, F, Kunming, Reproductive: Decreases in progesterone levels at ?5 mg/kg in GD 13 group / increased serum estradiol level at 10 mg/kg/day on GD 7 / …): 2.5 mg/kg-day | LOAEL (Mus musculus; [7]): 1 mg/kg-day | NOAEL (Mus musculus; [7]): 0.3 mg/kg-day | NOAEL (Mus musculus; reproduction developmental, duration: 17 days, oral, F, Hepatic: Increased severity of centrilobular hepatocyte hypertrophy at ?0.3 mg/kg/day): 1 mg/kg-day | LOAEL (Mus musculus; reproduction developmental, duration: 17 days, oral, M/F, CD1, Hepatic: Increased severity of hepatocellular hypertrophy at PND 91 and periportal inflammation on PND 21 at ?0.01 mg/kg/day (incidence was …): 0.01 mg/kg-day | LOAEL (Mus musculus; reproduction developmental, duration: 18 days, oral, F, ICR, Hepatic: 35% increased maternal relative liver weight with hepatocellular hypertrophy at ?1 mg/kg/day / single cell necrosis and mild …): 10 mg/kg-day | LOAEL (Mus musculus; short-term, duration: 3 weeks, oral, M, Hepatic: Hepatocellular hypertrophy and degeneration): 5 mg/kg-day | NOAEL (Mus musculus; short-term, duration: 4 days, dermal, F, BALB/c): 50 mg/kg-day | LOAEL (Mus musculus; [8]): 6.25 mg/kg-day | NOAEL (Mus musculus; [8]): 2.5 mg/kg-day | LOAEL (Mus musculus; [9]): 18.8 mg/kg-day | NOAEL (Mus musculus; [9]): 12.5 mg/kg-day | LOAEL (Mus musculus; [10]): 10 mg/kg-day | NOAEL (Mus musculus; [10]): 5 mg/kg-day | NOAEL (Mus musculus; short-term, duration: 5 days, oral, F, BALB/c, Hepatic: Increases in liver weight and hepatocellular hypertrophy at ?1 mg/kg): 10 mg/kg-day | LOAEL (Mus musculus; [11]): 10 mg/kg-day | NOAEL (Mus musculus; [11]): 5 mg/kg-day | LOAEL (Mus musculus; short-term, duration: 5 days, oral, F, C57BL/6, Reproductive: Increased progesterone levels): 5 mg/kg-day | NOAEL (Mus musculus; short-term, duration: 5 days, oral, F, Hepatic: Increases in liver weight and hepatocellular hypertrophy at ?1 mg/kg): 10 mg/kg-day | LOAEL (Mus musculus; short-term, duration: 7 days, oral, F, BALB/c, Body Weight: 36% decrease in body weight gain + Immunotoxicological: Inhibition of T-and B-lymphocyte proliferation in response to sRBC / …): 20 mg/kg-day | NOAEL (Mus musculus; short-term, duration: 7 days, oral, F, BALB/c, Hepatic: 32% increase in relative liver weight): 20 mg/kg-day | LOAEL (Mus musculus; short-term, duration: 7 days, oral, M, Body Weight: 14% decreased mean body weight + Immunotoxicological: 40% reduction in spleen weight and 79% reduction in thymus weight): 33 mg/kg-day | LOAEL (Mus musculus; short-term, duration: 7 days, oral, M, Body Weight: >10% reduced final body weight): 24 mg/kg-day | NOAEL (Mus musculus; short-term, duration: 7 days, oral, M, Hepatic: 2-fold increase in absolute liver weight): 24 mg/kg-day | NOAEL (Mus musculus; short-term, duration: 7 days, oral, M, Hepatic: 86% increase in absolute liver weight): 33 mg/kg-day | NOAEL (Mus musculus; short-term, duration: 7 days, oral, M, Hepatic: Hepatocellular hypertrophy, steatosis, and increased hepatic triglyceride levels): 10 mg/kg-day | LOAEL (Mus musculus; short-term, duration: 7 days, oral, M, Immunotoxicological: Decreased humoral response to immunization with horse red blood cells): 24 mg/kg-day | LOAEL (Mus musculus; [12]): 15 mg/kg-day | NOAEL (Mus musculus; [12]): 7.5 mg/kg-day | LOAEL (Mus musculus; short-term, duration: 10 days, oral, M, Body Weight: 17% decrease in final body weight): 30 mg/kg-day | LOAEL (Mus musculus; short-term, duration: 10 days, oral, M, Body Weight: 25% body weight loss after 5 days of treatment): 78 mg/kg-day | LOAEL (Mus musculus; short-term, duration: 10 days, oral, M, Body Weight: 25% body weight loss after 10 days of treatment): 78 mg/kg-day | NOAEL (Mus musculus; short-term, duration: 10 days, oral, M, C57BL/6, Hepatic: 68% increase in liver weight, hepatocellular hypertrophy, and decreased serum cholesterol levels): 2 mg/kg-day | NOAEL (Mus musculus; short-term, duration: 10 days, oral, M, Hepatic: 35% increase in absolute liver weight at ?1 mg/kg/day): 1 mg/kg-day | NOAEL (Mus musculus; short-term, duration: 10 days, oral, M, Hepatic: 74% increase in absolute liver weight at ?78 mg/kg/day): 390 mg/kg-day | NOAEL (Mus musculus; short-term, duration: 10 days, oral, M, Hepatic: 74% increase in absolute liver weight in 5 days at ?78 mg/kg/day): 390 mg/kg-day | NOAEL (Mus musculus; short-term, duration: 10 days, oral, M, Hepatic: >90% increase in absolute and relative liver weight): 30 mg/kg-day | LOAEL (Mus musculus; short-term, duration: 10 days, oral, M, Immunotoxicological: 40-50% decrease in spleen and thymus weights): 11.5 mg/kg-day | LOAEL (Mus musculus; short-term, duration: 10 days, oral, M, Immunotoxicological: 86% reduction in absolute thymus weight / 30% reduction in absolute spleen weight): 30 mg/kg-day | NOAEL (Mus musculus; short-term, duration: 15 days, oral, F): 7.5 mg/kg-day | LOAEL (Mus musculus; short-term, duration: 15 days, oral, F, Body Weight: 14-20% decrease in body weight in wild-type mice): 30 mg/kg-day | LOAEL (Mus musculus; short-term, duration: 21 days, oral, M, ICR, Immunotoxicological: Marked hyperplasia in spleen white pulp and thymic atrophy): 47.2 mg/kg-day | NOAEL (Mus musculus; subchronic, duration: 6 weeks, oral, M/F, BALB/c, Hepatic: 54-65% increase in relative liver weight / 20% increase in plasma cholesterol in males): 0.55 mg/kg-day | NOAEL (Mus musculus; subchronic, duration: 6 weeks, oral, M/F, C57BL/6, Hepatic: 66-67% increase in relative liver weight in males / increased plasma cholesterol levels in males (35%) and females (70%)): 0.55 mg/kg-day | NOAEL (Oryctolagus sp.): 50 mg/kg-day | NOAEL (Rattus norvegicus; acute, duration: 1 days, M, Wistar, Neurological: No alteration in performance on novel object recognition test): 50 mg/kg-day | LOAEL (Rattus norvegicus; developmental, duration: 21 days, F, Wistar, Developmental: 17-18% reduced motor coordination and increased locomotor activity in pups on PNDs 34-35): 1.6 mg/kg-day | NOAEL (Rattus norvegicus; short-term, duration: 1 weeks, M, Wistar): 38 mg/kg-day | NOAEL (Rattus norvegicus; short-term, duration: 1 weeks, M, Wistar, Hepatic: Significant increase in absolute and relative liver weight at ?4.7 mg/kg/day): 9.5 mg/kg-day | NOAEL (Rattus norvegicus; short-term, duration: 14 days, M, Sprague-Dawley, Hepatic: 45% increase in relative liver weight): 20 mg/kg-day | LOAEL (Rattus norvegicus; short-term, duration: 28 days, M, Sprague-Dawley, Neurological: Cachexia and lethargy): 5 mg/kg-day
